From patent publication US10550116B2, “Fused bicyclic heterocycle derivatives as pesticides” (BAYER CROPSCIENCE AKTIENGESELLSCHAFT, priority 2015, dated 2020)
Where two headings read alike, the source gives them in different places.

What was measured:
Myzus persicae = Myzus persicae spray test; assay type: in vivo; conditions: foliar, Chinese cabbage leaf discs, after 5-6 days, read-out: efficacy
Procedure: (§1) To produce a suitable active ingredient preparation, 1 part by weight of active ingredient is dissolved with the stated parts by weight of solvent and made up with water containing an emulsifier concentration of 1000 ppm until the desired concentration is attained. To produce further test concentrations, the preparation is diluted with emulsifier-containing water. Discs of Chinese cabbage leaves (Brassica pekinensis) infested by all stages of the green peach aphid (Myzus persicae) are sprayed with an active ingredient preparation of the desired concentration. After 5-6 days, the efficacy in % is determined. 100% means that all the aphids have been killed; 0% means that no aphids have been killed.

Phaedon cochleariae = Phaedon cochleariae spray test; assay type: in vivo; conditions: foliar, 168 h, larvae on Chinese cabbage leaf discs, after 7 days, read-out: efficacy
Procedure: as §1, with “pekinensis)” for “pekinensis) infested by all stages of the green peach aphid (Myzus persicae)”, “concentration and, after drying, populated with larvae of the mustard beetle (Phaedon cochleariae).” for “concentration.”, “7” for “5-6”, “beetle larvae” for “aphids”

Spodoptera frugiperda = Spodoptera frugiperda spray test; assay type: in vivo; conditions: foliar, 168 h, caterpillars on maize leaf discs, after 7 days, read-out: efficacy
Procedure: To produce a suitable active ingredient preparation, 1 part by weight of active ingredient is dissolved with the stated parts by weight of solvent and made up with water containing an emulsifier concentration of 1000 ppm until the desired concentration is attained. To produce further test concentrations, the preparation is diluted with emulsifier-containing water. Leaf discs of maize (Zea mays) are sprayed with an active ingredient preparation of the desired concentration and, after drying, populated with caterpillars of the armyworm (Spodoptera frugiperda). After 7 days, the efficacy in % is determined. 100% means that all the caterpillars have been killed; 0% means that no caterpillar has been killed.

[1] = log P by HPLC on reversed-phase column (EEC Directive 79/831 Annex V.A8); assay type: physicochemical; conditions: reversed-phase C18 HPLC column, 55° C.
Procedure: The log P values are measured according to EEC Directive 79/831 Annex V.A8 by HPLC (high-performance liquid chromatography) on a reversed-phase column (C 18). Temperature: 55° C. The LC-MS determination in the acidic range is effected at pH 2.7 using 0.1% aqueous formic acid and acetonitrile (contains 0.1% formic acid) as eluents; linear gradient from 10% acetonitrile to 95% acetonitrile. Called log P (HCOOH) in the table. LC-MS determination in the neutral range is effected at pH 7.8 with 0.001 molar aqueous ammonium hydrogencarbonate solution and acetonitrile as eluents; linear gradient from 10% acetonitrile to 95% acetonitrile. Called log P (neutral) in the table. Calibration is carried out using unbranched alkan-2-ones (having 3 to 16 carbon atoms) with known log P values (log P values determined on the basis of the retention times by linear interpolation between two successive alkanones).

[2] = pH 7.8, aqueous ammonium hydrogencarbonate/acetonitrile, read-out: log P (neutral)
[3] = pH 2.7, 0.1% aqueous formic acid/acetonitrile, read-out: log P (acidic)

Structure (SMILES) | pest or weed control at 500 g/ha (Spodoptera frugiperda) | chromatographic logP [1, 2] | further results
CCS(=O)(=O)c1cc2ccccc2nc1-c1nc2cc(C(F)(F)F)ccc2n1C [Example I-12] | 100% | – | pest or weed control at 500 g/ha (Myzus persicae): 90%; pest or weed control at 500 g/ha (Phaedon cochleariae): 100%
CCS(=O)(=O)c1cc2ccccc2nc1-c1nc2cc(C(F)(F)F)cnc2n1C [Example I-5] | 100% | – | pest or weed control at 500 g/ha (Myzus persicae): 70%; pest or weed control at 500 g/ha (Phaedon cochleariae): 100%
CCSc1cc2ccccc2nc1-c1nc2cc(C(F)(F)C(F)(F)F)ncc2n1C [Example I-35] | 100% | – | pest or weed control at 500 g/ha (Phaedon cochleariae): 83%
CCS(=O)(=O)c1cc2ccccc2nc1-c1nc2cc(C(F)(F)F)ccc2o1 [Example I-17] | 100% | – | pest or weed control at 500 g/ha (Myzus persicae): 90%; pest or weed control at 500 g/ha (Phaedon cochleariae): 100%
CCSc1cc2ccccc2nc1C(C)=O [1-[3-(Ethylsulphanyl)quinolin-2-yl]ethanone] | – | 3.31 | –
CCS(=O)(=O)c1ccc2nc(-c3nc4cc(C(F)(F)F)ncc4n3C)c(S(=O)(=O)CC)cc2c1 [Example I-6, 3,6-Bis(ethylsulphonyl)-2-[3-methyl-6-(trifluoromethyl)imidazo[4,5-c]pyridin-2-yl]quinoline] | 100% | 2.58 | pest or weed control at 500 g/ha (Myzus persicae): 90%; pest or weed control at 500 g/ha (Phaedon cochleariae): 83%
CCSc1cc2ccccc2nc1-c1nc2cc(C(F)(F)F)cnc2n1C [Example I-25] | 100% | – | pest or weed control at 500 g/ha (Phaedon cochleariae): 100%
CCS(=O)(=O)c1cc2ccccc2nc1-c1nc2cc(C(F)(F)C(F)(F)F)ncc2n1C [Example I-10] | 100% | – | pest or weed control at 500 g/ha (Myzus persicae): 90%; pest or weed control at 500 g/ha (Phaedon cochleariae): 100%
CC[S+]([O-])c1cc2ccccc2nc1-c1nc2cc(SC(F)(F)F)ccc2o1 (stereo not drawn) [Example I-30] | 100% | – | pest or weed control at 500 g/ha (Myzus persicae): 70%; pest or weed control at 500 g/ha (Phaedon cochleariae): 83%
CCS(=O)(=O)c1cc2ccccc2nc1-c1nc2cc(C(F)(F)C(F)(F)F)cnc2n1C [Example I-20] | – | – | pest or weed control at 100 g/ha (Myzus persicae): 100%; pest or weed control at 100 g/ha (Phaedon cochleariae; 100 g/ha): 100%; pest or weed control at 100 g/ha (Spodoptera frugiperda; 100 g/ha): 100%
COC(=O)c1nc2ncc(Cl)cc2cc1Cl [XXXI-1, Methyl 3,6-dichloro-1,8-naphthyridine-2-carboxylate] | – | 1.93 | –
Cn1c(-c2nc3ccc(Cl)cc3cc2Cl)nc2cc(C(F)(F)F)ncc21 [Example V-4, 3,6-Dichloro-2-[3-methyl-6-(trifluoromethyl)imidazo[4,5-c]pyridin-2-yl]quinoline] | – | 3.53 | –
Cn1c(-c2nc3ccccc3cc2Cl)nc2cc(C(F)(F)F)ncc21 [Example V-1, 3-Chloro-2-[3-methyl-6-(trifluoromethyl)imidazo[4,5-c]pyridin-2-yl]quinoline] | – | 2.89 | –
O=C(O)c1ccc2cccnc2n1 [XXX-1, 1,8-Naphthyridine-2-carboxylic acid] | – | – | chromatographic logP [1, 3]: -0.12
COC(=O)c1nc2ccc(Cl)nc2cc1Cl [XXXI-2, Methyl 3,6-dichloro-1,5-naphthyridine-2-carboxylate] | – | 2.46 | –
CCSc1cc2ccccc2nc1C(=O)N(C)OC [3-(Ethylsulphanyl)-N-methoxy-N-methylquinoline-2-carboxamide] | – | 2.17 | –
CCS(=O)(=O)c1nc2ccccc2nc1-c1nc2cc(C(F)(F)F)ncc2n1C [Example I-3, 2-Ethylsulphonyl-3-[3-methyl-6-(trifluoromethyl)imidazo[4,5-c]pyridin-2-yl]quinoxaline] | – | 2.45 | –
COC(=O)c1ccc2ncccc2n1 [XXII-2, Methyl 1,5-naphthyridine-2-carboxylate] | – | 0.92 | –
CCSc1cc2cc(Cl)ccc2nc1-c1nc2cc(C(F)(F)F)ncc2n1C [6-Chloro-3-ethylsulphanyl-2-[3-methyl-6-(trifluoromethyl)imidazo[4,5-c]pyridin-2-yl]quinoline] | – | 3.99 | –

Structure (SMILES) | pest or weed control at 500 g/ha (Spodoptera frugiperda) | chromatographic logP [1, 2] | further results
CCS(=O)(=O)c1cc2cc(Cl)ccc2nc1-c1nc2cc(C(F)(F)F)ncc2n1C [Example I-7] | 100% | – | pest or weed control at 500 g/ha (Myzus persicae): 90%; pest or weed control at 500 g/ha (Phaedon cochleariae): 100%
CCSc1cc2ccccc2nc1-c1nc2cc(C(F)(F)F)cnc2o1 [Example I-27] | – | 4.36 | –
CCSc1cc2ccccc2nc1-c1nc2cc3c(cc2[nH]1)OC(F)(F)O3 [Example I-31, 6-(3-Ethylsulphanyl-2-quinolyl)-2,2-difluoro-5H-[1,3]dioxolo[4,5-f]benzimidazole] | – | 4.26 | –
O=C(O)c1nc2ncc(Cl)cc2cc1Cl [III-1, 3,6-Dichloro-1,8-naphthyridine-2-carboxylic acid] | – | – | chromatographic logP [1, 3]: 0.7
CCS(=O)(=O)c1cc2ccccc2nc1-c1nc2cc3c(cc2[nH]1)OC(F)(F)O3 [Example I-15, 6-(3-Ethylsulphonyl-2-quinolyl)-2,2-difluoro-5H-[1,3]dioxolo[4,5-f]benzimidazole] | 100% | 3.37 | pest or weed control at 500 g/ha (Phaedon cochleariae): 100%
CCSc1cc2ccccc2nc1C(=O)CBr [2-Bromo-1-[3-(ethylsulphanyl)quinolin-2-yl]ethanone] | – | – | chromatographic logP [1, 3]: 3.95
COC(=O)c1ccc2cccnc2n1 [XXII-1, Methyl 1,8-naphthyridine-2-carboxylate] | – | 0.77 | –
Cn1c(-c2nc3ncc(Cl)cc3cc2Cl)nc2cc(C(F)(F)F)ncc21 [Example V-3, 3,6-Dichloro-2-[3-methyl-6-(trifluoromethyl)-3H-imidazo[4,5-c]pyridin-2-yl]-1,8-naphthyridine] | – | 2.44 | –
CCSc1cc2ccccc2nc1C(=O)Nc1cc(C(F)(F)F)cnc1Cl [IV-1] | – | 5.71 | –
CCS(=O)(=O)c1cc2ccccc2nc1-c1nc2cc(S(=O)(=O)C(F)(F)F)ccc2n1C [Example I-24, 3-Ethylsulphonyl-2-[1-methyl-5-(trifluoromethylsulphonyl)benzimidazol-2-yl]quinoline] | – | 3.42 | –
CCSc1ccc2nc(-c3nc4cc(C(F)(F)F)ncc4n3C)c(SCC)cc2c1 [3,6-bis(ethylsulphanyl)-2-[3-methyl-6-(trifluoromethyl)imidazo[4,5-c]pyridin-2-yl]quinoline] | – | 4.35 | –
CCS(=O)(=O)c1c(-c2nc3cc(C(F)(F)F)ncc3n2C)ncc2ccccc12 [I′-44] | 100% | – | pest or weed control at 500 g/ha (Myzus persicae): 90%; pest or weed control at 500 g/ha (Phaedon cochleariae): 83%
Cn1c(-c2nc3ccccc3nc2Cl)nc2cc(C(F)(F)F)ncc21 [Example V-2, 2-Chloro-3-[3-methyl-6-(trifluoromethyl)imidazo[4,5-c]pyridin-2-yl]quinoxaline] | – | 2.84 | –
CCSc1cc2ccccc2nc1-c1nc2cc(C(F)(F)F)ncc2n1C [Example I-2, 3-Ethylsulphanyl-2-[3-methyl-6-(trifluoromethyl)imidazo[4,5-c]pyridin-2-yl]quinoline] | 100% | 3.3 | pest or weed control at 100 g/ha (Myzus persicae): 100%
CCSc1cc2ccccc2nc1-c1cn2cnc(C(F)(F)F)cc2n1 [Example I-46, 3-(Ethylsulphanyl)-2-[7-(trifluoromethyl)imidazo[1,2-c]pyrimidin-2-yl]quinoline] | – | 3.24 | –
CCS(=O)(=O)c1cnc2nc(-c3nc4cc(C(F)(F)F)ncc4n3C)c(S(=O)(=O)CC)cc2c1 [Example I-41, 3,6-Bis(ethylsulphonyl)-2-[3-methyl-6-(trifluoromethyl)-3H-imidazo[4,5-c]pyridin-2-yl]-1,8-naphthyridine] | – | 2.21 | pest or weed control at 500 g/ha (Myzus persicae): 90%
CC[S+]([O-])c1cc2ccccc2nc1-c1nc2cc(C(F)(F)F)cnc2o1 (stereo not drawn) [Example I-28] | – | 2.98 | –
CCSc1cc2ccccc2nc1C(=O)O [3-(Ethylsulphanyl)quinoline-2-carboxylic acid] | – | 0.48 | –
